Assay results from patent US20150150787A1 (Pearl Therapeutics, Inc., priority 2013, published 2015).

What was measured:
[1] = Aerodynamic particle size distribution by Next Generation Impactor, MF/GP/FF triple cosuspension MDIs (Example 1); assay type: physicochemical; details: for FPM values when MF strength was varied: FF 4.8 μg and GPBr 18 μg/actuation, MF 100-300 μg/actuation
Description: The FF, GPBr, and MF materials were provided as a separate species of active agent particles, with each of the active agents provided as micronized, crystalline material. The co-suspension compositions were provided in pressurized metered dose inhalers (“MDI” or “MDIs”), with each formulation prepared to provide a delivered dose of 4.8 μg/actuation and 18 μg/actuation, respectively, of FF and GPBr. However, the amount of MF included in the three different compositions was varied, with compositions prepared to provide a delivered dose of MF selected from one of 100 μg/actuation, 200 μg/actuation, and 300 μg/actuation.
The suspending particles used in these co-suspensions were perforated microstructures prepared as described herein using a phospholipid material (DSPC). Drug crystals of GPBr (Boehringer Ingelheim, Petersberg, Va.) were micronized by air jet milling after receipt (median size, X50, ˜1.6 μm), but the FF (Inke, S.A., Barcelona Spain; X50˜1.4 μm) and MF (Hovione, Loures Portugal; X50˜1.6 μm) drug crystals were used as received. The Co-suspension formulations were prepared in HFA 134a propellant (Mexichem, S.A., Tlanepantla Mexico) and filled into 14 mL fluorinated ethylene polymer coated aluminum canisters (Presspart, Blackburn, UK), packaged with 50 μl valves, and delivered using an actuator with orifice size 0.3 mm (Bespak, King's Lynn, UK). Aerodynamic particle size distributions (aPSD) were obtained using the Next Generation Impactor (NGI) with the flow rate set to 30±1 LPM (n=3). Drug content was measured using ion-exchange HPLC with UV detection for FF and GP or reversed-phase HPLC with UV detection for MF.

[2] = Aerosol performance by Next Generation Impactor, BD/GP/FF cosuspension MDIs (Example 2); assay type: physicochemical; details: NGI 30 LPM, versus mono/dual cosuspensions or other strengths

MF FPM dose proportionality, slope ([1]; FPM = drug mass stages 3 through MOC, MF 100, 200, 300 μg/actuation, NGI 30 LPM, n=3) | SMILES | FPM values when MF strength was varied [1] | Coformulation effect (aerosol performance) when formulated in the triple cosuspensions [2]
– | COc1ccc(C[C@@H](C)NC[C@H](O)c2ccc(O)c(NC=O)c2)cc1 (racemic) [FF, (±)-2-hydroxy-5-[(1RS)-1-hydroxy-2-[[(1RS)-2-(4-methoxyphenyl)-1-methylethyl]-amino]ethyl] formanilide] | remained virtually unchanged | no coformulation effect was observed
– | C[N+]1(C)CCC(OC(=O)C(O)(c2ccccc2)C2CCCC2)C1 (stereo not shown) [GP, (3-[(cyclopentylhydroxyphenylacetyl)oxy]-1,1-dimethyl-, bromide)] | remained virtually unchanged | –
0.48 | C[C@@H]1C[C@H]2[C@@H]3CCC4=CC(=O)C=C[C@]4(C)[C@@]3(Cl)[C@@H](O)C[C@]2(C)[C@@]1(OC(=O)c1ccco1)C(=O)CCl [MF, mometasone furoate] | – | –
